Assay results as given in the Deep4Chem optical property database.
Values belong to the molecule of their own block, whether it stands above or below them.

Experiment: photoluminescence quantum yield (fraction); solvent given as SMILES

photoluminescence quantum yield (in C1CCCCC1): 0.094
photoluminescence quantum yield (in CC#N): 0.0051
photoluminescence quantum yield (in CCO): 0.00014
photoluminescence quantum yield (in c1ccccc1): 0.063
Structure (SMILES): CNc1cccc2c1-c1ccccc1C2=O

photoluminescence quantum yield (in ClCCl): 0.022
Structure (SMILES): Cc1cn2cc(-c3ccc([N+](=O)[O-])cc3)[n-][n+]2c1

photoluminescence quantum yield (in CCO): 0.0424
photoluminescence quantum yield (in ClCCl): 0.0634
photoluminescence quantum yield (in O): 0.07
Structure (SMILES): O=Cc1ccc(-c2ccc(-c3nc4ccccc4s3)c(O)c2)s1

photoluminescence quantum yield (in CO): 0.17
Structure (SMILES): CCCCCCc1cc(B(c2c(C)cc(C)cc2C)c2c(C)cc(C)cc2C)c(-c2sc(CCCCCC)cc2P(=O)(c2ccccc2)c2ccccc2)s1

photoluminescence quantum yield (in CC#N): 0.23
photoluminescence quantum yield (in CCCCOCCCC): 0.27
photoluminescence quantum yield (in CO): 0.13
Structure (SMILES): CC(=O)Nc1ccc2ccc3cccc4ccc1c2c34

photoluminescence quantum yield (in C1CCCCC1): 0.12
photoluminescence quantum yield (in CC#N): 0.5
Structure (SMILES): C=Cc1cc(OC)cc(OC)c1

photoluminescence quantum yield (in CS(C)=O): 0.045
Structure (SMILES): Cc1ccc(C2C(C#N)=C(N)n3c(=O)c4ccccc4c(=O)n32)cc1 (stereo not given)

photoluminescence quantum yield (in CS(C)=O): 0.03
Structure (SMILES): CCCCN1/C(=C/C=C/C2=[N+](C)c3ccccc3C2(C)C)C(C)(C)c2cc(OC)ccc21

photoluminescence quantum yield (in C1CCOC1): 0.01
Structure (SMILES): Oc1ccc(C2=N[N+]3=Cc4c(ccc5ccccc45)O[B-]3(c3ccc([B-]45OC(c6ccc(O)cc6)=N[N+]4=Cc4c(ccc6ccccc46)O5)cc3)O2)cc1 (stereo not given)

photoluminescence quantum yield (in ClCCl): 0.72
Structure (SMILES): Cc1nc(-c2cc(F)ccc2O)n2c1CCCC2

photoluminescence quantum yield (in ClCCl): 0.176
Structure (SMILES): C(S/C=C/c1ccc(-c2ccc(/C=C/SC=C3CCCCCC3)cc2)cc1)=C1CCCCCC1

photoluminescence quantum yield (in ClCCl): 0.0361
Structure (SMILES): COc1cc(OC)cc(C2=CC(c3ccccc3)=C(c3ccccc3)C2)c1

photoluminescence quantum yield (in ClCCl): 0.67
Structure (SMILES): C(=C\c1cnc2ccccc2n1)/c1ccc(N(c2ccccc2)c2ccccc2)cc1

photoluminescence quantum yield (in CS(C)=O): 0.75
Structure (SMILES): COc1ccc2cc(-c3cc4ccc(OC)cc4oc3=O)oc2c1

Continued, molecule first:

Structure (SMILES): CCCCCCN1C(=O)c2cccc3cc(/N=C\c4cn(C)c5ccccc45)cc(c23)C1=O
photoluminescence quantum yield (in ClC(Cl)Cl): 0.03

Structure (SMILES): COc1ccc(C2=C(c3ccccc3)C(c3ccccc3)=[N+]3C2=Nc2c(-c4ccc(OC)cc4)c(-c4ccccc4)c(-c4ccccc4)n2[B-]3(F)F)cc1
photoluminescence quantum yield (in Cc1ccccc1): 0.04

Structure (SMILES): C(=C1c2ccccc2CCc2ccccc21)c1ccc(C=C2c3ccccc3CCc3ccccc32)cc1
photoluminescence quantum yield (in C1CCOC1): 0.001

Structure (SMILES): CCCCC(CC)CN1C(=O)c2cc(Oc3ccc(OC)cc3)c3c4c(Cl)cc5c6c(cc(Cl)c(c7c(Oc8ccc(OC)cc8)cc(c2c37)C1=O)c64)C(=O)N(c1c(C(C)C)cccc1C(C)C)C5=O (stereo not given)
photoluminescence quantum yield (in Cc1ccccc1): 0.13

Structure (SMILES): CCC12C(=C3C(=C4c5ccccc5S(=O)(=O)C41CC)C(F)(F)C(F)(F)C3(F)F)c1ccccc1S2(=O)=O (stereo not given)
photoluminescence quantum yield (in C1COCCO1): 0.22

Structure (SMILES): COc1ccc(N(c2ccc(C=C(c3ccccc3)c3ccccc3)cc2)c2ccc(OC)cc2)cc1
photoluminescence quantum yield (in Cc1ccccc1): 0.01

Structure (SMILES): c1ccc(C2CCN3COc4c5ccccc5c5c6c7c(c2c3c46)C(c2ccccc2)CCN7CO5)cc1 (stereo not given)
photoluminescence quantum yield (in C1CCCCC1): 0.715
photoluminescence quantum yield (in C1CCOC1): 0.124
photoluminescence quantum yield (in C1COCCO1): 0.183
photoluminescence quantum yield (in CC#N): 0.025
photoluminescence quantum yield (in CC(C)=O): 0.046
photoluminescence quantum yield (in CCOC(C)=O): 0.108
photoluminescence quantum yield (in CCOCC): 0.227
photoluminescence quantum yield (in CN(C)C=O): 0.039
photoluminescence quantum yield (in CO): 0.023
photoluminescence quantum yield (in CS(C)=O): 0.026
photoluminescence quantum yield (in Cc1ccccc1): 0.871
photoluminescence quantum yield (in ClC(Cl)Cl): 0.053
photoluminescence quantum yield (in ClCCl): 0.066

Structure (SMILES): N#CC(C#N)=Cc1ccc(-c2ccc(-c3nc4ccccc4s3)c(O)c2)o1
photoluminescence quantum yield (in CCO): 0.0089
photoluminescence quantum yield (in ClCCl): 0.0121
photoluminescence quantum yield (in O): 0.01

Structure (SMILES): CC(C)(C)c1ccc(C2=C(c3ccc(C(C)(C)C)cc3)C(c3ccc(C(C)(C)C)cc3)=[N+]3C2=C(c2ccccc2)c2c(-c4ccc(C(C)(C)C)cc4)c(-c4ccc(C(C)(C)C)cc4)c(-c4ccc(C(C)(C)C)cc4)n2[B-]3(F)F)cc1
photoluminescence quantum yield (in C1CCCCC1): 0.32
photoluminescence quantum yield (in C1CCOC1): 0.3
photoluminescence quantum yield (in CC#N): 0.25
photoluminescence quantum yield (in Cc1ccccc1): 0.57
photoluminescence quantum yield (in ClCCl): 0.45

Structure (SMILES): CCCCCCc1ccc(-n2c3c4cccc(OC)c4nc(-c4ccc(C)cc4)c3c3c2c2c(-c4ccc(C)cc4)nc4c(OC)cccc4c2n3-c2ccc(CCCCCC)cc2)cc1
photoluminescence quantum yield (in ClC(Cl)Cl): 0.02
